Measured values: patent publication US9951040B2, “1,3,5 -triazine based PI3K inhibitors as anticancer agents and a process for the preparation thereof” (Council of Scientific and Industrial Research, priority 2014, dated 2018)
Where two headings read alike, the source gives them in different places.

Target: PI3K alpha (Homo sapiens, UniProt P42336)
Test: PI3K-α assay (ADP-Glo enzyme inhibition)
Format: biochemical
Conditions: at 500 nm
Procedure: Compounds were evaluated for their ability to inhibit class I PI3-kinase enzyme alpha as given below. PI3K-α Assay: PI3K alpha (diluted in 12.5 mM Glycine-NaOH (pH 8.5), 50 mM KCl, 2.5 mM MgCl2, 1 mM DTT, 0.05% CHAPS) is assayed in total volume of 20 ul containing 12.5 mM glycine-NaOH (pH 8.5), 50 mM KCl, 2.5 mM MgCl2, 1 mM DTT, 0.05% CHAPS, 0.01 mM ATP and 0.05 mM diC8 PIP2. The enzyme is assayed for 80 min after which 20 ul of ADP-Glo reagent is added. After a further incubation of 40 min, 40 ul of Kinase Detection Buffer is added. The assays are incubated for 40 min and then read on PerkinElmer Envision for 1 sec/well.

[1] = read-out: In vitro PI3K α % of inhibition
[2] = read-out: inhibition against PI3K alpha

PI3K alpha, sequence (P42336 whole entry, species assumed): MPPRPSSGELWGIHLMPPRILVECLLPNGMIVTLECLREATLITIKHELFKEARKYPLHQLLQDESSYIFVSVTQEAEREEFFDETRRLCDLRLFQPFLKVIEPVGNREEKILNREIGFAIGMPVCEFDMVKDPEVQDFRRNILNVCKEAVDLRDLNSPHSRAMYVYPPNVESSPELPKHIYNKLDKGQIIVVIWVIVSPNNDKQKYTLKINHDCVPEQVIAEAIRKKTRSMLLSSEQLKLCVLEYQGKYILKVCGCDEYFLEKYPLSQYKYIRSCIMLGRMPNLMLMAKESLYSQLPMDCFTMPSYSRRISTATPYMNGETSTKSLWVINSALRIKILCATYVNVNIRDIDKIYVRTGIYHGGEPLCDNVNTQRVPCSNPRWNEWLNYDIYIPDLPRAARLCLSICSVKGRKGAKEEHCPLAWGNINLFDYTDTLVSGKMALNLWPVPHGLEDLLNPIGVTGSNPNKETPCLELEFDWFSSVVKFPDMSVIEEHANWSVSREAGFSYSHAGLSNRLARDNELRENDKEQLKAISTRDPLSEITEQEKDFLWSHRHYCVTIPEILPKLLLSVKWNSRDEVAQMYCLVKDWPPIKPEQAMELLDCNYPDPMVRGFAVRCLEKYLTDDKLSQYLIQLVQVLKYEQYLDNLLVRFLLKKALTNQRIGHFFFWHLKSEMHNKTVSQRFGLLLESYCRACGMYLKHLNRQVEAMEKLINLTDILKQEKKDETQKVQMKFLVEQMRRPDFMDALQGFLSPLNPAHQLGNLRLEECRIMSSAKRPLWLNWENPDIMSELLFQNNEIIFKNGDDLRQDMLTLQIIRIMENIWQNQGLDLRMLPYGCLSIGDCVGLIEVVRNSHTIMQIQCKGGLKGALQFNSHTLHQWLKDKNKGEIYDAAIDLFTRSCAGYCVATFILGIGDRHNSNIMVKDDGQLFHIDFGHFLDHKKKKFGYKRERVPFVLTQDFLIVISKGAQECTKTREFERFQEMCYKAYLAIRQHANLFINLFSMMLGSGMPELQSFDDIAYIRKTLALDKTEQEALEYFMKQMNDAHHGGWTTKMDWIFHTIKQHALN
PI3K alpha, sequence (P27986 whole entry partner, species assumed): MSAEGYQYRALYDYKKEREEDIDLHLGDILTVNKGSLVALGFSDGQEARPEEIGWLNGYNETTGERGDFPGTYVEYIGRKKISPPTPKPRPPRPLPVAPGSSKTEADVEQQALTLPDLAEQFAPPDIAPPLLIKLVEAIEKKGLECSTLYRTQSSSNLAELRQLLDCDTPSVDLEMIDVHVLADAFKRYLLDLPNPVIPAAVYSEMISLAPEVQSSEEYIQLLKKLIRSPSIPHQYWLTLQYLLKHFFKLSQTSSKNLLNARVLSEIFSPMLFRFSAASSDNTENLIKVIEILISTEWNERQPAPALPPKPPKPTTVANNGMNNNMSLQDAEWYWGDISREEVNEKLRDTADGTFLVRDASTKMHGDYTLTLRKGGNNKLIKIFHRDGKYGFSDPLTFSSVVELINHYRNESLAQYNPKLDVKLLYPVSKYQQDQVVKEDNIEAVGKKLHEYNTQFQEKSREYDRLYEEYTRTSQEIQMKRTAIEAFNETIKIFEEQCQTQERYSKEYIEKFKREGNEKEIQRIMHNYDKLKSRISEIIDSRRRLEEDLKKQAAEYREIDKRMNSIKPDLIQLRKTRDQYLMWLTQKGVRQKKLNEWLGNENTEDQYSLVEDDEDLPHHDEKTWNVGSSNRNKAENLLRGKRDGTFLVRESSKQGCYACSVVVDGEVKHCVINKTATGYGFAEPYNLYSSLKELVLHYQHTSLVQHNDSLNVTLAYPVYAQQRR

| Structure (SMILES) | inhibition at 0.5 µM [1] | inhibition at 0.5 µM [2] |
| --- | --- | --- |
| Fc1ccc(NC2CCN(c3nc(N4CCOCC4)nc(-n4c(C(F)F)nc5ccccc54)n3)CC2)cc1 [1B21, 1-(4-(2-(difluoromethyl)-1H-benzo[d]imidazol-1-yl)-6-morpholino-1,3,5-triazin-2-yl)-N-(4-fluorophenyl)piperidin-4-amine] | 50 to 70% |  |
| FC(F)c1nc2ccccc2n1-c1nc(N2CCOCC2)nc(N2CCC(Nc3ccccc3C(F)(F)F)CC2)n1 [1B29, 1-(4-(2-(difluoromethyl)-1H-benzo[d]imidazol-1-yl)-6-morpholino-1,3,5-triazin-2-yl)-N-(2-(trifluoromethyl)phenyl)piperidin-4-amine] | 50 to 70% |  |
| COc1cccc(NC2CCN(c3nc(N4CCOCC4)nc(-n4c(C(F)F)nc5ccccc54)n3)CC2)c1 [1B31, 1-(4-(2-(difluoromethyl)-1H-benzo[d]imidazol-1-yl)-6-morpholino-1,3,5-triazin-2-yl)-N-(3-methoxyphenyl)piperidin-4-amine] | > 70% | > 70% |
| Cc1ccc(NC2CCN(c3nc(N4CCOCC4)nc(-n4cnc5cc(F)ccc54)n3)CC2)cc1 [1B33, 1-(4-(5-fluoro-1H-benzo[d]imidazol-1-yl)-6-morpholino-1,3,5-triazin-2-yl)-N-(p-tolyl)piperidin-4-amine] | 50 to 70% |  |
| FC(F)(F)c1ccc(NC2CCN(c3nc(N4CCOCC4)nc(-n4cnc5ccccc54)n3)CC2)cc1 [1B35, 1-(4-(1H-benzo[d]imidazol-1-yl)-6-morpholino-1,3,5-triazin-2-yl)-N-(4-(trifluoromethyl)phenyl)piperidin-4-amine] | 50 to 70% |  |
| FC(F)(F)Oc1ccc(NC2CCN(c3nc(N4CCOCC4)nc(-n4cnc5ccccc54)n3)CC2)cc1 [1B36, 1-(4-(1H-benzo[d]imidazol-1-yl)-6-morpholino-1,3,5-triazin-2-yl)-N-(4-(trifluoromethoxy)phenyl)piperidin-4-amine] | 50 to 70% |  |
| Fc1ccc(NC2CCN(c3nc(N4CCOCC4)nc(-n4cnc5ccccc54)n3)CC2)cc1 [1B37, 1-(4-(1H-benzo[d]imidazol-1-yl)-6-morpholino-1,3,5-triazin-2-yl)-N-(4-fluorophenyl)piperidin-4-amine] | > 70% | > 70% |
| Fc1ccccc1NC1CCN(c2nc(N3CCOCC3)nc(-n3cnc4ccccc43)n2)CC1 [1B38, 1-(4-(1H-benzo[d]imidazol-1-yl)-6-morpholino-1,3,5-triazin-2-yl)-N-(2-fluorophenyl)piperidin-4-amine] | 50 to 70% |  |
| Clc1ccccc1NC1CCN(c2nc(N3CCOCC3)nc(-n3cnc4ccccc43)n2)CC1 [1B39, 1-(4-(1H-benzo[d]imidazol-1-yl)-6-morpholino-1,3,5-triazin-2-yl)-N-(2-chlorophenyl)piperidin-4-amine] | 50 to 70% |  |
| FC(F)(F)c1ccccc1NC1CCN(c2nc(N3CCOCC3)nc(-n3cnc4ccccc43)n2)CC1 [1B40, 1-(4-(1H-benzo[d]imidazol-1-yl)-6-morpholino-1,3,5-triazin-2-yl)-N-(2-(trifluoromethyl)phenyl)piperidin-4-amine] | 50 to 70% |  |
| Fc1ccc(N(c2ccc(F)cc2)C2CCN(c3nc(N4CCOCC4)nc(-n4c(C(F)F)nc5ccccc54)n3)CC2)cc1 [1B41, 1-(4-(2-(difluoromethyl)-1H-benzo[d]imidazol-1-yl)-6-morpholino-1,3,5-triazin-2-yl)-N,N-bis(4-fluorophenyl)piperidin-4-amine] | > 70% | > 70% |
| Fc1ccc(N(c2ccc(Br)cc2)C2CCN(c3nc(N4CCOCC4)nc(-n4c(C(F)F)nc5ccccc54)n3)CC2)cc1 [1B42, N-(4-bromophenyl)-1-(4-(2-(difluoromethyl)-1H-benzo[d]imidazol-1-yl)-6-morpholino-1,3,5-triazin-2-yl)-N-(4-fluorophenyl)piperidin-4-amine] | > 70% | > 70% |
